We go through 4 molecules from patent publication US20040191811A1, “Methods for measuring levels of uridine-diphosphate-N-acetylglucosamine and activity of inhibitors thereof” (priority 2002, published 2004).

One assay concerns the target T1, GFAT-alpha (Homo sapiens, UniProt Q06210).
T1 construct: made in house; host or cells: SF9 insect cells (sonicated, centrifuged cell extract, not purified)
Kind of assay: GFAT-alpha inhibition, microtiter plate glucosamine 6-phosphate assay. In kind it is biochemical. The settings on record: enzyme expressed in SF9 insect cells; glutamine 10 mM, fructose 6-phosphate 10 mM; 60 minutes at 37° C. The procedure: Enzyme preparation. GFAT-alpha (GenBank Accession No. M90516) and GFAT-beta (Accession No. AB016789) are cloned into pET12 and pEF-BOS C vectors (New England BioLabs) for transfection into SF9 and Hi5 insect cells, COS, type 293 cells, and E.coli. Endogenous activity for each cell line was also measured in non-transfected cells. The enzymes are expressed in each cell line by growing in large 24×24 cm plates and harvesting 20 hours after transfection. The media is removed and the plates are washed in 15 ml PBS. 1.5 ml of a lysis buffer (PBS 1×, KCl 50 mM, EDTA 10 mM, with protease inhibitors leupeptin 10 ug/ml, PMSF 20 ug/ml, A-protinin 30 ug/ml, and pepstatin 10 ug/ml) is added to each plate and the cells are removed using a large plastic cell scraper. […] The cell #/lysis volume is about 4×10^7cell/ml. The suspension is sonicated on ice (Branson sonicator setting 2.5 to 3) for 15 seconds using a microtip. The sonicated cell extracts are stored in microfuge tubes at −80° C. Before use, the extracts are centrifuged at 15000×g for 5 minutes at 4° C. Each enzyme preparation is titrated to determine the volume that gives between 20 to 30 umoles of glucosamine 6-phosphate in a reaction mixture in a 60-minute incubation at 37° C. (FIGS. 1A and 1B).
Stimulation of GFAT activity. […] For most testing, a 60-minute incubation at 37° C. is carried out in 96 well microtiter plates. To give the best heat transfer the plates are sealed with a Costar plate sealer and floated on a 37° C. water bath. Air bubbles are removed from the bottom of the plate to ensure proper heat transfer to all wells. The 100 μl reaction volume consists of glutamine 10 mM, fructose 6-phosphate 10 mM, PBS 1×, EDTA 5 mM, DTT 1 mM and the enzyme preparation. A mixture of the incubation reagents is kept on ice and the enzyme is added to the mixture just before addition to the plate. Additional incubation mixture is kept on ice to add to standard and control samples. […] If test agents are to be used, 10 μl is added to the appropriate wells and the vehicle is added to the control wells before addition of the incubation mixture. […] A concentration range of 2.5 to 30 umoles is in the linear portion of the curve and covers the quantity of glucosamine 6-phosphate produced under the incubation conditions (FIG. 4). The cold mixture is added to the standard sample wells and the glucosamine 6-phosphate is then measured.
Measurement of glucosamine 6-phosphate The reaction is started by adding the incubation mixture to the appropriate wells in a microtiter plate and placing the plate on a 37° C. water bath. […] The acetylated glucosamine is measured by the Morgan and Elson color reaction (Morgan. W. T. J. & Elson, L. A. (1934).Biochem. J. 28, 988). […]

Another assay addresses T2, GFAT-beta (Homo sapiens, UniProt O94808).
T2 construct: made in house; host or cells: SF9 insect cells (sonicated, centrifuged cell extract, not purified)
Kind of assay: GFAT-beta inhibition, microtiter plate glucosamine 6-phosphate assay. In kind it is biochemical. The protocol: Stimulation of GFAT activity. […] For most testing, a 60-minute incubation at 37° C. is carried out in 96 well microtiter plates. To give the best heat transfer the plates are sealed with a Costar plate sealer and floated on a 37° C. water bath. Air bubbles are removed from the bottom of the plate to ensure proper heat transfer to all wells. […] A mixture of the incubation reagents is kept on ice and the enzyme is added to the mixture just before addition to the plate. Additional incubation mixture is kept on ice to add to standard and control samples. […] If test agents are to be used, 10 μl is added to the appropriate wells and the vehicle is added to the control wells before addition of the incubation mixture. 15 wells are left blank for addition of control and standard glucosamine 6-phosphate samples. After the incubation, 10 μl of the standards made up in the appropriate vehicle (DMSO) are added to the appropriate wells.

[1] abbreviates: enzyme expressed in SF9 insect cells, glutamine 10 mM, fructose 6-phosphate 10 mM, 60 minutes at 37° C., read-out: IC50 for inhibition of GFAT-beta.

Like-named read-outs stand apart in the source and are kept apart here.

T1 sequence (Q06210 1-681 isoform Q06210-2): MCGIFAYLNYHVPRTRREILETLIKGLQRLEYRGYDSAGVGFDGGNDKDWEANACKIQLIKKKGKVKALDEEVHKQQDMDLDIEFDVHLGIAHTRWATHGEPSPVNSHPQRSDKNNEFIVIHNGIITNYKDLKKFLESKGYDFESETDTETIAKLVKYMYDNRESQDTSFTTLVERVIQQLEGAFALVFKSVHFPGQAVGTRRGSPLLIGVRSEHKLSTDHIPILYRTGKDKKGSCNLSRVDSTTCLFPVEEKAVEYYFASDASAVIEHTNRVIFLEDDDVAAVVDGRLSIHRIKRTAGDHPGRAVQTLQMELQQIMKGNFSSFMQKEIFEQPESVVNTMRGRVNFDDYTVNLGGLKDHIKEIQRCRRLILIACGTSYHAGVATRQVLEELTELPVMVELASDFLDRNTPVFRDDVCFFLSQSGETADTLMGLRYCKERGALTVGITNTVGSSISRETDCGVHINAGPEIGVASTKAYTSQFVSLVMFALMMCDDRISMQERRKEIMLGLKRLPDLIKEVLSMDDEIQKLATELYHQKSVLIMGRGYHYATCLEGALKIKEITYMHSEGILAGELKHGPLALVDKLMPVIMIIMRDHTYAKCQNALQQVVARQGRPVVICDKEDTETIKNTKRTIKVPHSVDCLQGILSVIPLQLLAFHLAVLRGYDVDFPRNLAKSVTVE
T2 sequence (O94808 whole entry): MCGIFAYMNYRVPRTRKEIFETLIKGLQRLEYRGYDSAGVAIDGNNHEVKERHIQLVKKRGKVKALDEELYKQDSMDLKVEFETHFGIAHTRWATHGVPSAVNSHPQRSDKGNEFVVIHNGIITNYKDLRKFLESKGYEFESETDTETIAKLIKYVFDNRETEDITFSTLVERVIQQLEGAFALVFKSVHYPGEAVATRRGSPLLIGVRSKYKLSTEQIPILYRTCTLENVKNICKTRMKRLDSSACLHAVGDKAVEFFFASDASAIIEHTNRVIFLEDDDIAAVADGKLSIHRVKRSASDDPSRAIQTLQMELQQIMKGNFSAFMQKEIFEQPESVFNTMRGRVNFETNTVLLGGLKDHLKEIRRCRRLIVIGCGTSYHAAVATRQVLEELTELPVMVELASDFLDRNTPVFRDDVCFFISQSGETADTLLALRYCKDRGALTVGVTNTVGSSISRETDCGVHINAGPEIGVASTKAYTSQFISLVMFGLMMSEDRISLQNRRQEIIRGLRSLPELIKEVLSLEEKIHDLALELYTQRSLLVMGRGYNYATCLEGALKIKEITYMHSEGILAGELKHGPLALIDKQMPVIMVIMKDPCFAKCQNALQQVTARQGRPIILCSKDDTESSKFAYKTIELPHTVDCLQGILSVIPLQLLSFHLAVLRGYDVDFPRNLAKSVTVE

Regarding `[N-]=[N+]=CC(=O)CC[C@H](N)C(=O)O` [DON, 6-diazo-5-oxo-L-norleucine], the IC50 on GFAT-alpha and on GFAT-beta was 18 µM in each case.
For `COC(=O)/C=C/C(=O)NC[C@H](N)C(=O)O` [FMDP, N3-(-4-methoxyflumaroyl)-L-2,3-diaminopropanoic acid], the IC50 (in general, the concentration that gives 50% inhibition) against GFAT-alpha came to 4 µM; on GFAT-beta (setting [1]) it was 2.3 µM.
In the same order, the values of `N[C@@H](CNC(=O)CBr)C(=O)O` [N3-(bromoacetyl)-L-2,3-diaminopropanoic acid] are 0.38 µM and 0.27 µM.
Regarding “uridine-diphosphate-N-acetylglucosamine [UDP-N-acetylglucosamine]”, the IC50 is 8 µM at GFAT-alpha and 100 µM on GFAT-beta (setting [1]). In addition, the “times as much required to inhibit GFAT-beta compared with GFAT-alpha” value at GFAT-beta (ratio of IC50 GFAT-beta to IC50 GFAT-alpha) is “more than 12 times”.
